In brackets after ≈: the same amount, converted by molar mass. Activity calls are given as the source filed them. The calls are words filed in the database; no cut-off is given here.
How the values were obtained:
Escherichia coli = test: Antibacterial activity against Escherichia coli DC0 after 18 hrs by broth microdilution method; type: functional; conditions: DC0, 18 h
Pseudomonas aeruginosa [1] = test: Antibacterial activity against clinical isolates of Pseudomonas aeruginosa ISR-14-004 after 18 hrs by broth microdilution method; type: functional
Acinetobacter baumannii [2] = test: Antibacterial activity against carbapenemase producing Acinetobacter baumannii ATCC 17978-PNT-165 after 18 hrs by broth microdilution method; type: functional; conditions: ATCC 17978-PNT-165, 18 h
Acinetobacter baumannii [3] = test: Antibacterial activity against clinical isolates of Acinetobacter baumannii ARC 5079 after 18 hrs by broth microdilution method; type: functional
Acinetobacter baumannii [4] = test: Antibacterial activity against Acinetobacter baumannii ATCC BAA 1797 after 18 hrs by broth microdilution method; type: functional; conditions: ATCC BAA 1797, 18 h
Burkholderia dolosa = test: Antibacterial activity against Burkholderia dolosa AU0018 after 18 hrs by broth microdilution method; type: functional; conditions: AU0018, 18 h
Pseudomonas aeruginosa [5] = test: Antibacterial activity against clinical isolates of Pseudomonas aeruginosa ISR-14-003 after 18 hrs by broth microdilution method; type: functional
Pseudomonas aeruginosa [6] = test: Antibacterial activity against Pseudomonas aeruginosa ARC 3502 after 18 hrs by broth microdilution method; type: functional; conditions: ARC 3502, 18 h
Pseudomonas aeruginosa [7] = test: Antibacterial activity against Pseudomonas aeruginosa ARC 3506 after 18 hrs by broth microdilution method; type: functional; conditions: ARC 3506, 18 h
Acinetobacter baumannii [8] = test: Antibacterial activity against Acinetobacter baumannii ATCC BAA 1793 after 18 hrs by broth microdilution method; type: functional
Salmonella typhimurium = test: Antibacterial activity against Salmonella typhimurium ATCC 13311 after 18 hrs by broth microdilution method; type: functional, Salmonella enterica subsp. enterica serovar Typhimurium; conditions: Salmonella enterica, ATCC 13311, 18 h
Pseudomonas aeruginosa [9] = test: Antibacterial activity against Pseudomonas aeruginosa 01 after 18 hrs by broth microdilution method; type: functional; conditions: Pseudomonas aeruginosa, 01, 18 h
Acinetobacter baumannii [10] = test: Antibacterial activity against clinical isolates of Acinetobacter baumannii ARC 5079 in presence of tazobactam after 18 hrs by broth microdilution method; type: functional; conditions: ARC 5079, 18 h
Klebsiella aerogenes = test: Antibacterial activity against Enterobacter aerogenes X816 after 18 hrs by broth microdilution method; type: functional; conditions: X816, 18 h
Proteus mirabilis = test: Antibacterial activity against Proteus mirabilis X235 after 18 hrs by broth microdilution method; type: functional; conditions: X235, 18 h
Citrobacter freundii = test: Antibacterial activity against Citrobacter freundii ATCC 29063 after 18 hrs by broth microdilution method; type: functional; conditions: ATCC 29063, 18 h
Acinetobacter baumannii [11] = test: Antibacterial activity against Acinetobacter baumannii ATCC BAA 1800 after 18 hrs by broth microdilution method; type: functional; conditions: ATCC BAA 1800, 18 h
Acinetobacter baumannii [12] = test: Antibacterial activity against Acinetobacter baumannii ATCC 17961 after 18 hrs by broth microdilution method; type: functional; conditions: ATCC 17961, 18 h
Pseudomonas aeruginosa [13] = test: Antibacterial activity against Pseudomonas aeruginosa ARC 3506 after 18 hrs in presence of tazobactam by broth microdilution method; type: functional; conditions: ARC 3506, 18 h
Acinetobacter baumannii [14] = test: Antibacterial activity against cephalosporinase producing Acinetobacter baumannii ATCC 17978-PNT-320 after 18 hrs by broth microdilution method; type: functional
Staphylococcus aureus = test: Antibacterial activity against Staphylococcus aureus SG 511 after 18 hrs by broth microdilution method; type: functional; conditions: SG 511, 18 h
Pseudomonas aeruginosa [15] = test: Antibacterial activity against Pseudomonas aeruginosa KW799/wt after 18 hrs by broth microdilution method; type: functional
Acinetobacter baumannii [16] = test: Antibacterial activity against clinical isolates of Acinetobacter baumannii ISR14-005 after 18 hrs by broth microdilution method; type: functional
Pseudomonas aeruginosa [17] = test: Antibacterial activity against clinical isolates of Pseudomonas aeruginosa ISR-14-003 after 18 hrs in presence of tazobactam by broth microdilution method; type: functional; conditions: ISR-14-003, 18 h
Pseudomonas aeruginosa [18] = test: Antibacterial activity against Pseudomonas aeruginosa ARC 3502 after 18 hrs in presence of tazobactam by broth microdilution method; type: functional; conditions: ARC 3502, 18 h
Acinetobacter baumannii [19] = test: Antibacterial activity against clinical isolates of Acinetobacter baumannii ISR14-005 after 18 hrs in presence of tazobactam by broth microdilution method; type: functional; conditions: ISR14-005, 18 h
Pseudomonas aeruginosa [20] = test: Antibacterial activity against clinical isolates of Pseudomonas aeruginosa ISR-14-004 after 18 hrs in presence of tazobactam by broth microdilution method; type: functional; conditions: ISR-14-004, 18 h
Acinetobacter baumannii [21] = test: Antibacterial activity against Acinetobacter baumannii ATCC BAA 1800 at 10 ug/ml after 18 hrs by broth microdilution method; type: functional
Acinetobacter baumannii [22] = test: Antibacterial activity against Acinetobacter baumannii ATCC BAA 1793 at 10 ug/ml after 18 hrs by broth microdilution method; type: functional

Row | Compound | MIC (Escherichia coli) [µM] | MIC (Pseudomonas aeruginosa [1]; ISR-14-004, 18 h) | MIC (Acinetobacter baumannii [2]) [µM] | MIC (Acinetobacter baumannii [3]; ARC 5079, 18 h) | MIC (Acinetobacter baumannii [4]) [µM] | MIC (Burkholderia dolosa) [µM] | MIC (Pseudomonas aeruginosa [5]; ISR-14-003, 18 h) | MIC (Pseudomonas aeruginosa [6]) | MIC (Pseudomonas aeruginosa [7]) | MIC (Acinetobacter baumannii [8]; ATCC BAA 1793, 18 h) [µM] | MIC (Salmonella typhimurium) [µM] | MIC (Pseudomonas aeruginosa [9]) [µM] | MIC (Klebsiella aerogenes) [µM] | MIC (Proteus mirabilis) [µM] | MIC (Citrobacter freundii) [µM] | MIC (Acinetobacter baumannii [11]) [µM] | MIC (Acinetobacter baumannii [12]) [µM] | MIC (Staphylococcus aureus) [µM] | MIC (Pseudomonas aeruginosa [15]) [µM] | MIC (Acinetobacter baumannii [16]; ISR14-005, 18 h) | also measured
1 | CC(C)(O/N=C(\C(=O)N[C@@H]1C(=O)N(S(=O)(=O)O)[C@H]1CSCCN)c1cnc(N)s1)C(=O)O | 6 (≈ 3.06 µg/mL) | > 50 µM | 50 (≈ 25.5 µg/mL) | > 50 µM | 50 (≈ 25.5 µg/mL) | > 50 | > 50 µM | ≥ 50 µM | > 50 µM | ≥ 50 | 4.5 (≈ 2.3 µg/mL) | > 50 | 9.4 (≈ 4.8 µg/mL) | 3 (≈ 1.53 µg/mL) | 3 (≈ 1.53 µg/mL) | ≥ 50 | > 50 | > 50 | > 50 | > 50 µM | MIC (Acinetobacter baumannii [10]): > 50 µM; MIC (Pseudomonas aeruginosa [13]): > 50 µM; MIC (Acinetobacter baumannii [14]; ATCC 17978-PNT-320, 18 h): > 50 µM
2 | COC(=O)CSC[C@H]1[C@H](NC(=O)Cc2ccccc2)C(=O)N1S(=O)(=O)O | > 50 | > 50 µM | > 50 | > 50 µM | > 50 | > 50 | > 50 µM | > 50 µM | > 50 µM | > 50 | > 50 | > 50 | > 50 | > 50 | > 50 | > 50 | > 50 | > 50 | > 50 | > 50 µM | MIC (Acinetobacter baumannii [14]; ATCC 17978-PNT-320, 18 h): > 50 µM
3 | C[C@H]1[C@H](NC(=O)/C(=N\OC(C)(C)C(=O)O)c2csc(N)n2)C(=O)N1S(=O)(=O)O [AZTREONAM] | 0.1 (≈ 0.0435 µg/mL) | – | 12.5 (≈ 5.44 µg/mL) | – | – | > 50 | – | – | 12.5 to 50 µM | 12.5 to 25 (≈ 5.44 to 10.9 µg/mL) | 0.1 (≈ 0.0435 µg/mL) | – | 0.2 (≈ 0.0871 µg/mL) | 0.05 (≈ 0.0218 µg/mL) | 0.1 (≈ 0.0435 µg/mL) | 12.5 to 25 (≈ 5.44 to 10.9 µg/mL) | – | > 50 | 1.6 (≈ 0.697 µg/mL) | – | –
4 | CO/N=C(\C(=O)N[C@@H]1C(=O)N(S(=O)(=O)O)[C@H]1CSCCN)c1cnc(N)s1 | 25 (≈ 11 µg/mL) | > 50 µM | 50 (≈ 21.9 µg/mL) | – | > 50 | – | > 50 µM | > 50 µM | > 50 µM | – | 12.5 (≈ 5.48 µg/mL) | > 50 | 0.2 (≈ 0.0877 µg/mL) | 12.5 (≈ 5.48 µg/mL) | 12.5 (≈ 5.48 µg/mL) | – | 50 (≈ 21.9 µg/mL) | > 50 | > 50 | > 50 µM | –
5 | CC(C)(O/N=C(\C(=O)N[C@@H]1C(=O)N(S(=O)(=O)O)[C@H]1CSCCNC(=O)CN(CCCCNC(=O)c1cccc(O)c1O)C(=O)c1cccc(O)c1O)c1cnc(N)s1)C(=O)O | < 0.025 | 6 µM | 0.4 (≈ 0.364 µg/mL) | 1.6 to 25 µM | 0.4 (≈ 0.364 µg/mL) | > 50 | 1.6 µM | > 50 µM | > 50 µM | 0.1 to 0.4 (≈ 0.0911 to 0.364 µg/mL) | 0.025 (≈ 0.0228 µg/mL) | 0.4 (≈ 0.364 µg/mL) | 0.075 (≈ 0.0683 µg/mL) | < 0.025 | 0.05 (≈ 0.0455 µg/mL) | 0.1 to 0.4 (≈ 0.0911 to 0.364 µg/mL) | 0.2 (≈ 0.182 µg/mL) | > 50 | 0.4 (≈ 0.364 µg/mL) | > 50 µM | MIC (Acinetobacter baumannii [10]): 1.6 to 50 µM; MIC (Pseudomonas aeruginosa [17]): 1.6 µM; MIC (Pseudomonas aeruginosa [18]): 1.6 µM; MIC (Pseudomonas aeruginosa [13]): 1.6 to 25 µM; MIC (Acinetobacter baumannii [14]; ATCC 17978-PNT-320, 18 h): 0.4 µM; MIC (Acinetobacter baumannii [19]): 25 µM; MIC (Pseudomonas aeruginosa [20]): 3 µM
6 | C[C@]1(Cn2ccnn2)[C@H](C(=O)O)N2C(=O)C[C@H]2S1(=O)=O [TAZOBACTAM] | – | > 20 µg/mL | – | > 10 µg/mL | – | > 50 | > 20 µg/mL | > 10 µg/mL | > 10 µg/mL | – | – | – | – | – | – | – | – | – | – | > 20 µg/mL | MIC (Acinetobacter baumannii [14]; ATCC 17978-PNT-320, 18 h): < 10 µg/mL; Activity (Acinetobacter baumannii [21]): inactive; Activity (Acinetobacter baumannii [22]): inactive
7 | POLYMYXIN B | – | – | – | – | – | – | – | – | – | – | – | – | – | – | – | – | – | – | – | – | MIC (Pseudomonas aeruginosa [1]): 0.05 µM; MIC (Acinetobacter baumannii [3]): < 0.1 µM; MIC (Pseudomonas aeruginosa [5]): 0.1 µM; MIC (Acinetobacter baumannii [8]): < 0.025 µM; MIC (Acinetobacter baumannii [14]): < 0.025 µM; MIC (Acinetobacter baumannii [16]): < 0.025 µM

Reference: ChEMBL document CHEMBL4028874, “Methodology for Monobactam Diversification: Syntheses and Studies of 4-Thiomethyl Substituted β-Lactams with Activity against Gram-Negative Bacteria, Including Carbapenemase Producing Acinetobacter baumannii” (2017)
